{"source": "patent US20150148304A1", "about": "“Novel Peptides and Analogs for Use in the Treatment of Macrophage Activation Syndrome” (Soligenix, Inc., priority 2013, published 2015)", "origin": "cited, not measured here", "key": {"[1]": {"test_system": "macrophage activation syndrome", "conditions": "Ravelli et al. 2001, cited from earlier work"}, "TLR9": {"target": "T1, TLR9 (Homo sapiens, UniProt Q9NR96)", "T1 sequence (Q9NR96 26-1032)": "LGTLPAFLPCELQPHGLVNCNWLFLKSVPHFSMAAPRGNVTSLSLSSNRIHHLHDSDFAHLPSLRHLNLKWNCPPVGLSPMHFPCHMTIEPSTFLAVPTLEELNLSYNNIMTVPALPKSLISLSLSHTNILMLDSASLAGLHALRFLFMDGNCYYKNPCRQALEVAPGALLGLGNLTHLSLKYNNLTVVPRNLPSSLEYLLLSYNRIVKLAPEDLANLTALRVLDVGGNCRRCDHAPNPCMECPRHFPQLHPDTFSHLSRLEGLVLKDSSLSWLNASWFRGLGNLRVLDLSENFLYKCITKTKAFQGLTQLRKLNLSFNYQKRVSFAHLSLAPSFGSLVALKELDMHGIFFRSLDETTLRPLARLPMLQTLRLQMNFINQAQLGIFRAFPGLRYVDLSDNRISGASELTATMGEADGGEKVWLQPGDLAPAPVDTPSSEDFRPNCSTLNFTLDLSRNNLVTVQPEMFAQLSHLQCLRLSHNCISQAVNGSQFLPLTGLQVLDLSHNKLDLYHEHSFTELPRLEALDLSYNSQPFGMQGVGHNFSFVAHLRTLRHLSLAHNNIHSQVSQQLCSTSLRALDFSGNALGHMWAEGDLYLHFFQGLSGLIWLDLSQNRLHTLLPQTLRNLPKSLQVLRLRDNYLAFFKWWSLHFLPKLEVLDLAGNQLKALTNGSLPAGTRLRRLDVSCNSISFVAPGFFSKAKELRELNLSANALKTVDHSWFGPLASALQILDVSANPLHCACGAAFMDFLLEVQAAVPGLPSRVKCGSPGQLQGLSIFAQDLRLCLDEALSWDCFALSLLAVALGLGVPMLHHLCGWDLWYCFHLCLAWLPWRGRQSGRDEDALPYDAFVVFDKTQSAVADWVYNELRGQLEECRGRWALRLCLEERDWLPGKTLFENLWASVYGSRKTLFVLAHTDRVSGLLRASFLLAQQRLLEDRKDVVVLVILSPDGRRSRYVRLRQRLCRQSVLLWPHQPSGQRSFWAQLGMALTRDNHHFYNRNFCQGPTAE", "conditions": "average; US 2011/0136845 Trawick et al.; cited from earlier work"}, "[2]": {"conditions": "cited from earlier work"}}}
{"compound": "cyclosporin A [CyA]", "values": [{"measurement": "efficacy in severe or corticosteroid-resistant macrophage activation syndrome", "setting": "[1]; patients, Mouy et al. 1996", "value": "effective"}, {"measurement": "time to disappearance of fever and improvement of laboratory abnormalities", "setting": "[1]; some patients", "value": "12 to 24", "unit": "h"}]}
{"compound": "O=C1CC[C@]2(O)[C@@H]3Cc4ccc(O)c5c4[C@]2(CCN3CC2CC2)[C@@H]1O5", "note": "[(+)-Naltrexone]", "values": [{"measurement": "inhibition of TLR9", "setting": "TLR9", "value": 51, "unit": "%"}]}
{"compound": "O=C1CC[C@@]2(O)[C@H]3Cc4ccc(O)c5c4[C@@]2(CCN3CC2CC2)[C@H]1O5", "note": "[Naltrexone]", "values": [{"measurement": "time of peak plasma levels after dosing", "setting": "[2]; oral administration", "value": "one"}, {"measurement": "urinary excretion of unchanged Naltrexone", "setting": "[2]; share of the elimination pathway", "value": "less than 2%"}]}
